Where a name gives a salt, the structure may show the parent alone. Positions of bridges follow the written chain, without caps; N, C: chain ends. Non-standard residues stand in square brackets, D forms with d. Residues, ends and D or L forms follow the SMILES beside them.
What was measured:
Format in all cases: in vivo, rat
growth hormone [1] = experiment: Arginine-stimulated growth hormone level in Nembutal-anaesthetised rats after subcutaneous test compound; conditions: for GH: p<0.01
Protocol: (§1) Albino male rats were administered Nembutal intraperitoneally at a dose of 50 milligrams per kilogram. Fifteen minutes later a subcutaneous injection of the test compound or physiological saline was administered. Ten minutes later 0.5 milliliters of arginine (300 milligrams per milliliter, pH 7.2) is injected into the heart. Five minutes after receipt of the arginine the rats are decapitated and blood is collected into trasylol-EDTA. An appropriate aliquot was assayed for growth hormone, insulin and glucagon.

insulin = experiment: Arginine-stimulated insulin level in Nembutal-anaesthetised rats after subcutaneous test compound; conditions: p<0.01
Protocol: as §1

glucagon = experiment: Arginine-stimulated glucagon level in Nembutal-anaesthetised rats after subcutaneous test compound
Protocol: as §1

growth hormone [2] = experiment: Duration of activity: plasma growth hormone by radioimmunoassay at hours after SC injection; conditions: for GH (duration of activity) / GH (duration of growth hormone suppression): 1,000 μg/kg
Protocol: The animals were kept in separate cages. Twenty minutes before the end of the test, 50 mg/kg Nembutal® was administered to all the rats (i.p.). […] Plasma was separated and growth hormone concentration was determined by radio immunoassay. Comparisons between the control and experimental growth hormone values were evaluated by the Student "t" test and statistical significance at the 0.05 level or lower was used as the index of activity. Based upon that test [Brazeau et al., Science, 170, 77 (1973)], the prolonged growth hormone suppression by the compounds of this invention was established. The data obtained for the product of Example 1, illustrative of the duration of activity of the other compounds of this invention, is as follows: […]

[3] = dose 2,000 μg/kg, control 220 ± 17
[4] = dose 2,000 μg/kg, control 34 ± 4
[5] = dose 2,000 μg/kg, control 38 ± 6

SMILES: C[C@@H](O)[C@@H]1NC(=O)[C@H](Cc2ccccc2)NC(=O)[C@H]([C@@H](C)O)NC(=O)[C@H](CCCCN)NC(=O)[C@@H](Cc2c[nH]c3ccccc23)NC(=O)[C@H](Cc2ccccc2)NC(=O)[C@H](Cc2ccccc2)NC(=O)[C@@H](Cc2c[nH]cn2)NC(=O)[C@H](CCCNC(=N)N)NC(=O)[C@@H](N)CSSC[C@@H](C(=O)O)NC(=O)[C@H](CO)NC1=O [Ex. 4, L-Cysteinyl-L-arginyl-D-histidyl-L-phenylalanyl-L-phenylalanyl-D-tryptophyl-L-lysyl-L-threonyl-L-phenylalanyl-L-threonyl-L-seryl-L-cysteine cyclic (1→12) disulfide tetra-acetate (salt)] (H-CR[dH]FF[dW]KTFTSC-OH; disulfide 1-12)
- GH (growth hormone [1]; dose 500 μg/kg, control 119 ± 29): 6 ± 1 ng/mL
- INS (insulin; dose 500 μg/kg, control 280 ± 15): 127 ± 22 μU/ml
- GLUN (glucagon; dose 500 μg/kg, control 44 ± 6): 29 ± 5 pg/mL
- GH (duration of activity) (growth hormone [2]; 2 hours, control 82 ± 25, p<0.05): 24 ± 5 ng/mL
- GH (duration of activity) (growth hormone [2]; 4 hours, control 76 ± 28, p<0.1 (not significant)): 20 ± 7 ng/mL
- GH (duration of activity) (growth hormone [2]; 5 hours, control 171 ± 38, p<0.02): 54 ± 11 ng/mL
- GH (duration of activity) (growth hormone [2]; 6 hours, control 73 ± 10): 54 ± 13 ng/mL

SMILES: C[C@@H](O)[C@@H]1NC(=O)[C@H](Cc2ccccc2)NC(=O)[C@H]([C@@H](C)O)NC(=O)[C@H](CCCCN)NC(=O)[C@@H](Cc2c[nH]c3ccccc23)NC(=O)[C@H](Cc2ccccc2)NC(=O)[C@H](Cc2ccccc2)NC(=O)[C@@H](CCCNC(=N)N)NC(=O)[C@H](CCCCN)NC(=O)[C@@H](N)CSSC[C@@H](C(=O)O)NC(=O)[C@H](CO)NC1=O [Ex. 6] (H-CK[dR]FF[dW]KTFTSC-OH; disulfide 1-12)
- GH (growth hormone [1]; [3]): 34 ± 8 ng/mL
- INS (insulin; [4]): 5 ± 1 µU/mL
- GLUN (glucagon; [5]): 32 ± 5 pg/mL
- GH (duration of activity) (growth hormone [2]; 2 hours, control 148 ± 25, p<0.01): 53 ± 8 ng/mL
- GH (duration of activity) (growth hormone [2]; 4 hours, control 73 ± 24, p<0.1): 21 ± 4 ng/mL

SMILES: C[C@@H](O)[C@@H]1NC(=O)[C@H](Cc2ccccc2)NC(=O)[C@H]([C@@H](C)O)NC(=O)[C@H](CCCCN)NC(=O)[C@@H](Cc2c[nH]c3ccccc23)NC(=O)[C@H](Cc2ccccc2)NC(=O)[C@H](Cc2ccccc2)NC(=O)[C@@H](CO)NC(=O)[C@H](CCCNC(=N)N)NC(=O)[C@@H](N)CSSC[C@@H](C(=O)O)NC(=O)[C@H](CO)NC1=O [Ex. 3, L-Cysteinyl-L-arginyl-D-seryl-L-phenylalanyl-L-phenylalanyl-D-tryptophyl-L- lysyl-L-threonyl-L-phenylalanyl-L-threonyl-L-seryl-L-cysteine cyclic (1→12)-disulfide triacetate (salt)] (H-CR[dS]FF[dW]KTFTSC-OH; disulfide 1-12)
- GH (growth hormone [1]; [3]): 37 ± 9 ng/mL
- INS (insulin; [4]): 8 ± 1 μU/ml
- GLUN (glucagon; [5]): 26 ± 5 pg/mL
- GH (duration of activity) (growth hormone [2]; 2 hours, control 290 ± 64, p<0.02): 91 ± 29 ng/mL
- GH (duration of activity) (growth hormone [2]; 4 hours, control 133 ± 38, p<0.1 (not significant)): 57 ± 12 ng/mL

SMILES: C[C@H](N)C(=O)NCC(=O)N[C@H]1CSSC[C@@H](C(=O)O)NC(=O)[C@H](CO)NC(=O)[C@H]([C@@H](C)O)NC(=O)[C@H](Cc2ccccc2)NC(=O)[C@H]([C@@H](C)O)NC(=O)[C@H](CCCCN)NC(=O)[C@H](Cc2c[nH]c3ccccc23)NC(=O)[C@H](Cc2ccccc2)NC(=O)[C@H](Cc2ccccc2)NC(=O)[C@H](CC(N)=O)NC(=O)[C@H](CCCCN)NC1=O [SRIF, reference compound]
- INS (insulin; dose 200 μg/kg sc, control 43 ± 3): 31 ± 2 µU/mL
- GLUN (glucagon; dose 200 μg/kg sc, control 46 ± 6, p<0.01): 21 ± 4 pg/mL

SMILES: C[C@@H](O)[C@@H]1NC(=O)[C@H](Cc2ccccc2)NC(=O)[C@H]([C@@H](C)O)NC(=O)[C@H](CCCCN)NC(=O)[C@@H](Cc2c[nH]c3ccccc23)NC(=O)[C@H](Cc2ccccc2)NC(=O)[C@H](Cc2ccccc2)NC(=O)[C@@H](CCCNC(=N)N)NC(=O)[C@H](CCCNC(=N)N)NC(=O)[C@@H](N)CSSC[C@@H](C(=O)O)NC(=O)[C@H](CO)NC1=O [Ex. 2, L-Cysteinyl-L-arginyl-D-arginyl-L-phenylalanyl-L-phenylalanyl-D-tryptophyl- L-lysyl-L-threonyl-L-phenylalanyl-L-threonyl-L-seryl-L-cysteine cyclic (1→12)-disulfide tetraacetate (salt)] (H-CR[dR]FF[dW]KTFTSC-OH; disulfide 1-12)
- GH (growth hormone [1]; dose 1,000 μg/kg, control 141 ± 14): 4 ± 3 ng/mL
- INS (insulin; dose 1,000 μg/kg, control 227 ± 19): 89 ± 8 µU/mL
- GLUN (glucagon; dose 1,000 μg/kg, control 61 ± 7): 44 ± 8 pg/mL
- GH (duration of activity) (growth hormone [2]; 2 hours, control 303 ± 53, p<0.001): 54 ± 11 ng/mL
- GH (duration of activity) (growth hormone [2]; 4 hours, control 73 ± 7): 83 ± 9 ng/mL

SMILES: C[C@@H](O)[C@@H]1NC(=O)[C@H](CCCCN)NC(=O)[C@@H](Cc2c[nH]c3ccccc23)NC(=O)[C@H](Cc2ccccc2)NC(=O)[C@H](Cc2ccccc2)NC(=O)[C@@H](Cc2ccc(O)cc2)NC(=O)[C@H](CCCNC(=N)N)NC(=O)[C@@H](N)CSSC[C@H](C(=O)O)NC(=O)[C@H](CO)NC(=O)[C@H]([C@@H](C)O)NC(=O)[C@H](Cc2ccccc2)NC1=O [L-Cysteinyl-L-arginyl-D-tyrosyl-L-phenylalanyl-L-phenylalanyl-D-tryptophyl- L-lysyl-L-threonyl-L-phenylalanyl-L-threonyl-L-seryl-D-cysteine cyclic (1→12) disuflide] (H-CR[dY]FF[dW]KTFTS[dC]-OH; disulfide 1-12)
- GH (growth hormone [1]; dose 3,000 μg/kg sc, control 176 ± 33): 17 ± 3 ng/mL
- reduction of secretion of growth hormone, insulin and glucagon (in words) (growth hormone [1]; summary of rat data): effective agent for reducing secretion of growth hormone, insulin, and glucagon
- INS (insulin; dose 100 μg/kg sc, control 43 ± 3): 7 ± 2 µU/mL
- INS (insulin; dose 3,000 μg/kg sc, control 340 ± 17): 48 ± 9 µU/mL
- GLUN (glucagon; dose 100 μg/kg sc, control 46 ± 6, p>0.05): 31 ± 4 pg/mL
- GLUN (glucagon; dose 3,000 μg/kg sc, control 48 ± 5, p<0.01): 23 ± 4 pg/mL
- Plasma GH (growth hormone [2]; 500 μg/kg SC, 6 hours after injection, control 103 ± 17): 152 ± 27 ng/mL
- Plasma GH (growth hormone [2]; 1,000 μg/kg SC, 2 hours after injection, control 542 ± 145, p<0.01): 30 ± 5 ng/mL
- Plasma GH (growth hormone [2]; 1,000 μg/kg SC, 4 hours after injection, control 107 ± 25, p<0.01): 37 ± 6 ng/mL
- Plasma GH (growth hormone [2]; 1,000 μg/kg SC, 6 hours after injection, control 103 ± 17): 114 ± 22 ng/mL
- duration of growth hormone suppression (in words) (growth hormone [2]; summary of rat data): very prolonged activity in suppressing growth hormone blood levels

SMILES: C[C@@H](O)[C@@H]1NC(=O)[C@H](Cc2ccccc2)NC(=O)[C@H]([C@@H](C)O)NC(=O)[C@H](CCCCN)NC(=O)[C@@H](Cc2c[nH]c3ccccc23)NC(=O)[C@H](Cc2ccccc2)NC(=O)[C@H](Cc2ccccc2)NC(=O)[C@@H](Cc2ccc(O)cc2)NC(=O)[C@H](CCCCN)NC(=O)[C@@H](N)CSSC[C@@H](C(=O)O)NC(=O)[C@H](CO)NC1=O [Ex. 5, L-Cysteinyl-L-lysyl-D-tyrosyl-L-phenylalanyl-L-phenylalanyl-D-tryptophyl-L- lysyl-L-threonyl-L-phenylalanyl-L-threonyl-L-seryl-L-cysteine cyclic (1→12) disulfide] (H-CK[dY]FF[dW]KTFTSC-OH; disulfide 1-12)
- GH (duration of growth hormone suppression) (growth hormone [2]; 2 hours, control 84 ± 17, p<0.01): 27 ± 5 ng/mL
- GH (duration of growth hormone suppression) (growth hormone [2]; 2 hours, second experiment, control 80 ± 12): 72 ± 21 ng/mL
- GH (duration of growth hormone suppression) (growth hormone [2]; 4 hours, control 84 ± 22, p<0.05): 33 ± 4 ng/mL
- GH (duration of growth hormone suppression) (growth hormone [2]; 5 hours, control (printed 2 hours) 141 ± 51): 113 ± 27 ng/mL

From US4204990A, “Somatostatin analogues” (American Home Products Corporation, priority 1978, dated 1980)
